Data set [1] in a line: rate studies of reaction with methyl glyoxal by reverse phase HPLC. To be noted: pH 7, aqueous solution.
Data set [2] can be described thus: analysis of blood of treated mice by HPLC/mass spectrometry (absorption from GI tract). The conditions noted are these: treated FATZO mice. Format: in vivo. Here is the method: (§1) In order to test the hypothesis that a non-absorbable compound which is confined to the GI tract can favorably affect metabolic syndrome T2D and related conditions in vivo studies were carried out with I/II using a polygenic mutant strain of mice that develop metabolic syndrome, T2D and obesity when fed a high fat (“Western type”) diet. This polygenic mouse model (“FATZO” mouse), developed by Eli Lilly Co. and PreClinOmics (now Crown Bio, Indianapolis, Ind.), has been described in detail (PLoS ONE, 12, 1-15 (2017). FATZO mice on a high fat diet generally gain weight, gradually become obese, and develop hyperglycemia, hypertension, glucose intolerance, insulin insensitivity and severe T2D. A group of FATZO mice were placed on a high fat diet (HFD) for an initial three-week ‘base’ period after which they were divided into two groups: Group 1 (the treated group) was maintained on a HFD along with 5 mg/day of I/II, administered in water by gavage. […] Blood glucose levels of the treated group were stabile and after six weeks about 50% below those of the untreated group. […] A third group of FATZO mice was maintained on a standard diet of ordinary mouse chow and also treated with 5 mg/day of I/II.

In the next data set the test system is GLP-1. Nature of the data set: in vitro protection of GLP-1 from methyl glyoxal (UPLC/TOF-MS). Format: biochemical. To be noted: 0.62 mM peptide, 30 mM phosphate buffer pH 7.4, 20 equiv methyl glyoxal, 37 degrees C, 3 hours, 5 equiv compound relative to methyl glyoxal. Here is the method: In order to test further the hypothesis that intestinal peptide hormones might be compromised by the chemical action of gut microbial products, in vitro studies were carried out with GLP-1, PYY and Oxyntomodulin. For these studies methyl glyoxal was selected as electrophile because it is a well-known microbial metabolite and also relevant to metabolic syndrome, T2D and diabetic neuropathy; see Diabetes, 63, 50-52 (2014); Biochemical Soc. Transact, 42, 450-456 (2014); Clinical Sci., 128, 839-861 (2015); Hypertension, 56, 471-476 (2010). Methyl glyoxal has also been implicated in neurodegenerative diseases—see Neuroscience, 9, 1-12 (2015). […] Methyl glyoxal can be detected in blood in amounts that correlate with the severity of T2D. […]
The results of the in vitro studies that have been carried out using methyl glyoxal and each of three intestinal peptide hormones, GLP-1, PYY (a satiety-sensing hormone), and Oxyntomodulin, can be summarized as follows: • 1. […] The mixture was cooled to ambient temperature and analyzed by ultra-high pressure liquid chromatography (Agilent 1290 UPLC) coupled with detection by triple time of flight mass spectrometry (Scitex 5600 TRIPTOF mass spectrometer), each aliquot being diluted with 20% aqueous acetic acid. • 2. […]

The subject of the next data set is FATZO mice. Nature of the data set: in vivo study in polygenic FATZO mouse model of metabolic syndrome, T2D and obesity. Here is the method: as §1
Setting [3] is: standard diet of ordinary mouse chow, 5 mg/day, six weeks.

The pKa is the negative logarithm of the acid dissociation constant. In turn, `NCc1nc2cc(S(=O)(=O)O)ccc2[nH]1` [I, 2-(Aminiomethyl)-1H-benzol[d]imidazole-5-sulfonate] returned a pKa in the data set “physchem” of around 7.7.
With `CN(C)C(=N)N=C(N)N` [metformin], in data set [1], the “reactivity (rate) toward methyl glyoxal relative to N-tosyl-arginine methyl ester” value is listed as “less than one-tenth the rate”.
Take `NCc1nc2cc(S(=O)(=O)O)ccc2[nH]1` [I/II]: in data set [2], the “absorption from the GI tract after oral administration” value is given as “no detectable absorption”. Moreover, the “test compound in blood” value in data set [2] (oral administration, HPLC/mass spectrometry) is recorded as below 0.01 mg. per mouse. In the data set with GLP-1, the GLP-1 remained unchanged entry is on record as “greater than 95%”. Further, the “fasting blood glucose level below that of untreated group” value in the data set with FATZO mice (high fat diet, 5 mg/day by gavage in water, after six weeks) is “about 50%”. Further, the body weight gain entry with FATZO mice (high fat diet, 5 mg/day by gavage, six weeks (untreated gained 2% per week)) is given as “no weight gain”. For the same compound, in the data set with FATZO mice (setting [3]), the behavior entry was “completely normal behavior”, the body weight gain result is “no weight gain” and the “increase in fasting blood glucose levels” value is recorded as “no increase in fasting blood glucose levels”.

The record behind these values is patent publication US10822310B2, “Prevention and treatment of human metabolic syndrome including type 2 diabetes, steatohepititis and related conditions using non-absorbable, orally administered compounds” (priority 2017, dated 2020).
